This is an account of results in patent US6825230B2, “Spiro and dispiro 1,2,4-trixolane antimalarials” (Medicines for Malaria Venture MMV, priority 2002, dated 2004).

For data set [1], the system named is ANKA strain of Plasmodium berghei. Nature of the data set: Single dose ED50/ED90/ED99 determination in infected mice. Format: in vivo. The settings on record: single dose po in SSV on day 1 post-infection, parasitemia day 3, nonlinear fitting. The procedure, abridged: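 Moro SPF or NMRI mice (three per group) infected with P. berghei ANKA were dosed once on day 1 post-infection in SSV (0.5% CMC, 0.5% benzyl alcohol, 0.4% Tween 80, 0.9% NaCl). Parasitemia reduction was scored on day 3; ED values (mg/kg) came from nonlinear fitting.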

Data set [2] has as its system Schistosoma mansoni adult worms (49-day-old). Nature of the data set: Effect on adult schistosomes (49-day-old) in infected mice. Format: in vivo. The protocol:
Mice were infected with 100 Schistosoma mansoni cercariae on day 49 post-treatment. Each group was treated per os with OZ compounds at single doses of 200, 400, and 600 mg/kg. Untreated mice served as the control. All groups were killed 4 weeks after treatment and the liver and intestine were removed and separated. The liver and intestine were compressed and alive male and female worms could be seen and counted.

In data set [3] the test system is Schistosoma mansoni 21-day-old schistosomules. Nature of the data set: Effect on 21-day-old schistosomules in infected mice. It is filed as in vivo. Particulars: single 200 mg/kg per os, 21-day-old schistosomules. The protocol: Mice were infected with 100 Schistosoma mansoni cercariae on day 21 post-treatment. Each group was treated per os with trioxolanes at a single dose of 200 mg/kg. […] All groups were killed 4 weeks after treatment and the liver and intestine were removed and separated. The liver and intestine were compressed and alive male and female worms could be seen and counted. The effect of the compounds was evaluated by mean total and female worm burden.

The subject of the next data set is S. haematobium. Nature of the data set: In vivo activity against S. haematobium. The arrangement: species or system Schistosoma haematobium. Particulars: 1 x 200 mg/kg p.o.
A further data set relates to P. berghei ANKA strain. Briefly: Onset of action and recrudescence experiment, single 100 mg/kg po. Particulars: single 100 mg/kg po (SSV) on day +3 post-infection; recrudescence = >5% parasitemia; followed up to 60 days; groups of five. Format: in vivo, Plasmodium berghei.
The test system of data set [4] is ANKA strain of P. berghei. Nature of the data set: Single dose STI in vivo screen in infected mice. The arrangement: species or system Plasmodium berghei.
The subject of data set [5] is chloroquine-sensitive NF54 strain of P. falciparum. Nature of the data set: In vitro antimalarial semiautomated microdilution assay ([3H]-hypoxanthine incorporation), NF54 strain. It is filed as cell-based, Plasmodium falciparum. The settings on record: Plasmodium falciparum, NF54, 72 h, read-out: IC50 (ng/ml) NF54, chloroquine-sensitive NF54 strain, 72 h incubation. In outline: (§1)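 IC50 values come from Logit regression of [3H]-hypoxanthine uptake data. Parasites were intraerythrocytic P. falciparum forms taken from asynchronous stock cultures and tested by semiautomated microdilution.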

Data set [6] has as its system chloroquine-resistant K1 strain of P. falciparum. Nature of the data set: In vitro antimalarial semiautomated microdilution assay ([3H]-hypoxanthine incorporation), K1 strain. Format: cell-based, Plasmodium falciparum. Particulars: Plasmodium falciparum, K1, 72 h, read-out: IC50 (ng/ml) K1, chloroquine-resistant K1 strain, 72 h incubation. The procedure, abridged:
as §1

Another data set relates to Schistosoma japonicum. Briefly: Effect in mice infected with Schistosoma japonicum. Format: in vivo. Particulars: for MFWB (mean female worm burden) x ± SD: control 11.6 ± 2.4; for MTWB (mean total worm burden) x ± SD: control 26.6 ± 4.2.
Data set [7] is described as follows: Differential scanning calorimetry (DSC) thermal stability. It is filed as physicochemical. Particulars: thermal decomposition.
Where [8] appears, read: 1 x 200 mg/kg p.o. (table footnote).
The mark [9] stands for this setting: 1 x 400 mg/kg p.o. (table footnote).
The mark [10] stands for this setting: age of worm 7 days, 200 mg/kg x 1.
[11] abbreviates: age of worm 35 days, 200 mg/kg x 1.
Where [12] appears, read: age of worm 35 days, 400 mg/kg x 1.

`Cc1ccc(S(=O)(=O)O)cc1.NC[C@H]1CC[C@]2(CC1)OOC1(O2)C2CC3CC(C2)CC1C3` (stereo partly shown) [OZ207] showed an ED50 in data set [1] (Plasmodium berghei, po) of 0.37 mg/kg. Also, in data set [1], the “ED90” value is 1.2 mg/kg and the “ED99” value turned out to be 3.0 mg/kg. In data set [2] (single 200 mg/kg per os, 49-day-old adults, total worm reduction rate), the “% reduction of adult worms growth at day 49 after per os application of 200 mg/kg, TWR (%)” value is on record as 32%. For the same compound, the “Adult worms day 49, per os 200 mg/kg, DEAD WORM (%)” value in [2] (single 200 mg/kg per os, percentage of dead worm in the liver) was 17%. In addition, the “% reduction of adult worms growth at day 49 after per os application of 400 mg/kg, TWR (%)” value in [2] (single 400 mg/kg per os, 49-day-old adults, total worm reduction rate) turned out to be 35%. The “Adult worms day 49, per os 400 mg/kg, DEAD WORM (%)” value in data set [2] (single 400 mg/kg per os, percentage of dead worm in the liver) was 21%. Also, the “% reduction of adult worms growth at day 49 after per os application of 600 mg/kg, TWR (%)” value in data set [2] (single 600 mg/kg per os, 49-day-old adults, total worm reduction rate) is 11/ %. The “Adult worms day 49, per os 600 mg/kg, DEAD WORM (%)” value in data set [2] (single 600 mg/kg per os, percentage of dead worm in the liver) is recorded as 24++ %. For the same compound, the “% reduction of schistosomule growth at day 21 after per os application of 200 mg/kg, FWR (%)” value in data set [3] (female worm reduction rate) is given as 100%. Besides, the “% reduction of schistosomule growth at day 21 after per os application of 200 mg/kg, TWR (%)” value in [3] (total worm reduction rate) stood at 93%. In the data set with S. haematobium, the “S. haematobium DEAD WORM” value is listed as 68% and the “S. haematobium TWR” value is 73%. Moreover, the “Time of Recrudescence (days)” value in the data set on P. berghei ANKA strain is on record as “no recrudescence observed”. The “Survival (days) 10 mg/kg po” value in [4] (single 10 mg/kg po in 3% ethanol and 7% Tween 80, untreated 6-7 days) was found to be 9.3 days. Further, the “Activity (%) 10 mg/kg po” value in data set [4] (single 10 mg/kg po in 3% ethanol and 7% Tween 80 on day 1 post-infection, percent reduction in parasitemia on day 3) is recorded as 99.96%. Further, the “Survival (days) 10 mg/kg SSV po” value in [4] (single 10 mg/kg po in SSV, untreated 6-7 days) is on record as 12.0 days. The “Activity (%) 10 mg/kg SSV po” value in [4] (single 10 mg/kg po in standard suspending vehicle (SSV) on day 1 post-infection, percent reduction in parasitemia on day 3) was determined as 99.98%. Further, the “Survival (days) 10 mg/kg sc” value in [4] (single 10 mg/kg sc in 3% ethanol and 7% Tween 80, untreated 6-7 days) came out at 11.3 days. Moreover, the “Activity (%) 10 mg/kg sc” value in data set [4] (single 10 mg/kg sc in 3% ethanol and 7% Tween 80 on day 1 post-infection, percent reduction in parasitemia on day 3) is 99.98%. In addition, the IC50 in data set [5] was 0.57 ng/mL. Moreover, the IC50 in data set [6] is 0.33 ng/mL. In the data set with Schistosoma japonicum (setting [8]), the “S. Japonicum FWR” value was 95% and the “S. Japonicum TWR” value came to 66%. Also, in the data set on Schistosoma japonicum (setting [9]), the “S. Japonicum FWR” value turned out to be 94% and the “S. Japonicum TWR” value is listed as 84%. In the data set with Schistosoma japonicum (setting [10]), the “Mice without female worm” value is 0/8, the “MFWB (mean female worm burden) x ± SD” value amounted to 2.1 ± 1.0 and the “MTWB (mean total worm burden) x ± SD” value turned out to be 5.4 ± 2.4. Moreover, in the data set with Schistosoma japonicum (setting [11]), the “Mice without female worm” value was 4/7, the “MFWB (mean female worm burden) x ± SD” value is recorded as 0.6 ± 0.7 and the “MTWB (mean total worm burden) x ± SD” value was determined as 9.1 ± 3.9. In addition, in the data set with Schistosoma japonicum (setting [12]), the “Mice without female worm” value is recorded as 4/6, the “MFWB (mean female worm burden) x ± SD” value worked out at 0.7 ± 1.2 and the “MTWB (mean total worm burden) x ± SD” value was 4.3 ± 1.2.

On to `C[C@@H]1CC[C@H]2[C@@H](C)C(=O)O[C@@H]3O[C@@]4(C)CC[C@@H]1[C@]32OO4` [Artemisinin, artemisinin, reference compound], for which the “Time of Recrudescence” value in the data set with P. berghei ANKA strain was found to be 8.4 days. In addition, the “Tm, dec (DSC)” value in [7] worked out at 181 °C.
